The results in this text go back to ChEMBL document CHEMBL1150844, “Isolation and structures of hedaols A, B, and C, new bisnorditerpenes from a Japanese brown alga” (J Nat Prod, 2001).

The test system of this experiment is P388. The experiment in a line: Cytotoxicity against mouse P388 cells after 4 days by MTT method. It is filed as functional, cell-based. The settings on record: P388, 96 h. (In general: Formazan colour is commonly taken as a measure of viable cells.)

Values after ≈ are worked out from the molar mass of the structure shown.

The compound `CC(C)=CC(=O)/C=C(\C)CCC/C(C)=C/CC[C@@H](C)O` [HEDAOL C] registered an IC50 of 50 µg/mL (≈ 180 µM).
The compound `CC(C)=CC(=O)C/C(C)=C/CC/C(C)=C/CC[C@@H](C)O` [HEDAOL B] had an IC50 of 2.2 µg/mL (≈ 7.9 µM).
Take `CC(C)=CC(=O)/C=C(/C)CCC/C(C)=C/CC[C@@H](C)O` [HEDAOL A]: the IC50 was found to be 5.1 µg/mL (≈ 18.3 µM).

Usually IC50 stands for the point on the concentration scale where inhibition reaches its midpoint. A high value points to a need for much substance.
